Test results from patent publication US8431541B2, “Alpha-amylase inhibitors: the montbretins and uses thereof” (The University of British Columbia, priority 2007, dated 2013).

Legend:
[1] = tested on: male Wistar rats; assay: Taste aversion study, drinking water; type: in vivo, rat; conditions: approximately 10 mg/kg/day in drinking water
Experimental: A study was done to determine if there is aversion by animals to the taste of montbretin A dissolved in drinking water. Six (6) male Wistar rats weighing between 500-650 g were housed 2 rats per cage. Three hundred grams (300 g) of standard rat chow (Purnia) was placed in the food hopper of each cage daily. Food consumption per cage per day was determined every 24 hours for 3 days. A fluid volume of 900 ml of drinking water was placed on each cage daily. Fluid consumption per cage per day was determined every 24 hours for 3 days. Body weights of each animal were measured every 24 hours.
Based on the preliminary drinking water values obtained, montbretin A was dissolved in the drinking water so as to deliver a dose of 10 mg/kg/day. Body weight and food consumption measurements were done as described above. A fluid volume of 250 ml of montbretin A solution at a concentration of 0.09 mg/ml was placed on each cage daily. Fluid consumption was measured every 24 hours for 3 days.
The food and fluid consumption and body weights were analyzed. The dose of montbretin A was determined based on weight and consumption values. There was no effect of montbretin A dissolved in the drinking water on body weight, fluid intake or food intake and a dose of approximately 10 mg/kg was achieved.

[2] = molecular target: T1, human pancreatic α-amylase (HPA) (Homo sapiens, UniProt P04746); assay: Kinetic analysis of HPA inhibition; type: biochemical
T1 sequence (P04746 16-511): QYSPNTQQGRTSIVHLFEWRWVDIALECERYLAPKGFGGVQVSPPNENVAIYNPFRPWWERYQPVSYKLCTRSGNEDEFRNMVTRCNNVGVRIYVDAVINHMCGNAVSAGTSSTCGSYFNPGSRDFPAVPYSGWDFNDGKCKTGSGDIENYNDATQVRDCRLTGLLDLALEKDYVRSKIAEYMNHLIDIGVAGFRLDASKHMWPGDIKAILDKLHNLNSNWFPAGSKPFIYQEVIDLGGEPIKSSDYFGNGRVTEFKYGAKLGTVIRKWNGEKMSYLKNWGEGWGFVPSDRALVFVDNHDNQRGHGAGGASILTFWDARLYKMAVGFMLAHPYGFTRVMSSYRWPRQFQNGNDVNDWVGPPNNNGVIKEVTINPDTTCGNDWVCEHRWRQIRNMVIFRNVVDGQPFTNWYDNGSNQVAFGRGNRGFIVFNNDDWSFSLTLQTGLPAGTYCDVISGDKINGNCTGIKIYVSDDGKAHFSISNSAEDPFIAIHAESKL

[3] = Stability in simulated gastric fluid (SGF) by UPLC; type: in vitro ADME; conditions: SGF pH 1.51, 37° C., 1 hour
Experimental: (§1) The stability of montbretin A in both simulated intestinal fluid (SIF) and simulated gastric fluid (SGF) were analyzed via ultra performance liquid chromatography (UPLC). The instrument consisted of a Waters® Acquity™ UPLC system equipped with a PDA and a TQ detector in tandem. The 2 μL sample injection volume was passed through a Waters® Acquity™ BEH C18 column (1.7 μm, 2.1×100 mm), with mobile phases A and B consisting of water with 0.1% formic acid and acetonitrile with 0.1% formic acid, respectively. The mobile phases were delivered at a programmed linear gradient at a column temperature of 35° C. Linearity was evaluated using a set of montbretin A calibration standards with concentrations ranging from 10 to 100 μg/mL in water. […]
(§2) To examine the gastrointestinal fluid activity, 0.5 mg/ml solutions of oleamide (positive control) in SGF or SIF were prepared by diluting a 100 μL aliquot of oleamide (50 mg/mL in 2-propanol) to 10 mL with either SGF or SIF and incubated in a 37° C. water bath for 1 or 3 hours, respectively. At time points of 1 or 3 hours, the sample was removed from the water bath and a 100 μL aliquot of the resulting solution was diluted to 1 mL with de-ionized water in a glass UPLC glass sample vial and analyzed by UPLC for oleamide content. […]

[4] = Stability in simulated intestinal fluid (SIF) by UPLC; type: in vitro ADME; conditions: SIF pH 6.89, 37° C., within 3 hours
Experimental: as §1, §2

[5] = molecular target: α-galactosidase (Green Coffee Beans) (Coffea arabica, UniProt Q42656); assay: Glycosidase specificity: α-galactosidase; type: biochemical; conditions: at 0.1 μM Montbretin A; read-out: RA (%), Residual Enzyme Activity
α-galactosidase (Green Coffee Beans), sequence (Q42656 16-378): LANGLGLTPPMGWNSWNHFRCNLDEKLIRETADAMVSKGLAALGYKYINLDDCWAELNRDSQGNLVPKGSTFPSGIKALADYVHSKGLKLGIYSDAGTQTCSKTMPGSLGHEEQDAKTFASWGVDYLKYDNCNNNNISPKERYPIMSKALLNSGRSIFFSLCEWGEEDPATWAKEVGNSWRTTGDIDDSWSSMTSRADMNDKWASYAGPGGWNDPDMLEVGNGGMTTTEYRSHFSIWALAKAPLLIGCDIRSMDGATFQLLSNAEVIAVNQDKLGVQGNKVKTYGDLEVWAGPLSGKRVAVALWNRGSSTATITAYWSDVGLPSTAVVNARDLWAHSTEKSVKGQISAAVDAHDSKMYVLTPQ

## CC1O[C@@H](O[C@@H]2CO[C@@H](Oc3c(O)cc(-c4oc5cc(O)cc(O)c5c(=O)c4O[C@@H]4OC(C)[C@H](O)[C@H](O)C4O[C@@H]4OC(COC(=O)/C=C/c5ccc(O)c(O)c5)[C@@H](O)[C@@H](O)C4O[C@@H]4OC(CO)[C@@H](O)[C@@H](O)C4O)cc3O)C(O)[C@@H]2O)C(O)[C@@H](O)[C@H]1O (some centres unmarked) [Montbretin A, montbretin A]
[1]; 3 days
  effect on body weight: no effect
  effect on fluid intake: no effect
  effect on food intake: no effect
[1]; duration of the trial
  side effects: no overt indications of side effects
[2]; double reciprocal plot
  mode of inhibition of HPA: competitive
[2]; presence of 1 mM calcium chloride
  effect of calcium on HPA inhibition: no change in inhibition
[2]; presence vs absence of 5 mM dithiothreitol
  effect of DTT on HPA inhibition: No effect
[2]; varied substrate and inhibitor concentrations, GraFit
  Ki: 8.1 ± 0.5 nM
[3]
  degradation or loss in SGF: ~10%
[4]
  degradation in SIF: no significant degradation
[5]
  remaining activity at 0.1 µM: 100%
